Measured values: patent US20110182916A1, “Use of Agonists of Integrin Alpha 5 for Inducing the Osteogenic Differentiation of Mesenchymal Stem Cells” (priority 2008, published 2011)
Where no end group is shown, it is not given here.

How the values were obtained:
[1] = tested on: LV-ITGA5-infected hMSCs; type: cell-based, human
Experimental: To this goal, proteins collected from hMSCs infected with LV-ITGA5 were analysed by western blot analysis.
Legend: Osteoblast differentiation by ITGA5 involves ERK1/2 signalling.

[2] = tested on: ITGA5 in primary hMSCs; assay: ITGA5 mRNA expression by quantitative RT-PCR; type: cell-based, human; settings: dexamethasone 10^-7 M, day 1 and 3, primary hMSCs
[3] = tested on: ITGA5 in hMSCs; assay: ITGA5 protein level by Western blot; type: cell-based, human; settings: dexamethasone 10^-7 M
Experimental: For Western blot analysis, cells lysates were prepared as previously described (FROMIGUE et al. Cell Death Differ. 13, 1845-56, 2006). Briefly, proteins (30 μg) were resolved on 4-12% SDS-PAGE and electrotransfered onto […] membranes (Millipore Corporation, Bedford, USA). Filters were incubated at RT for 2 h in 50 mM Tris/HCl (pH 7.4), 150 mM NaCl, 0.1% (v/v) Tween-20, 0.5% (w/v) bovine serum albumin (TBST/BSA), then overnight at 4° C. on a shaker with specific primary antibodies diluted at 1/1000 in TBST/BSA: monoclonal antibody against the housekeeping gene GAPDH (Abeam Cambridge, UK), and rabbit polyclonal antibody directed against ITGA5 was Santa Cruz Biotechnology (Santa Cruz, Calif., USA). Membranes were washed twice with TBST and incubated for 2 hours with appropriate HRP-conjugated secondary antibody (1/20,000 in TBST/BSA). After final washes, the signals were visualized with enhanced chemiluminescence western blotting detection reagent (ECL, Amersham Biosciences, Piscataway, N.J., USA) and autoradiographic film (X-OMAT-AR, Eastman Kodak Company, Rochester, N.Y., USA). Densitometric analysis using ImageQuant software was performed following digital scanning (Agfa).

[4] = tested on: hMSCs; assay: Osteoblast marker mRNA (Runx2, ALP, Col1A1) by quantitative RT-PCR; type: cell-based; settings: CRRETAWAC 100 μg/ml, 24 h, human MSCs
Experimental: The expression of mRNA markers of the osteoblast lineage (Runx2, ALP, type 1 collagen) was evaluated by quantitative RT-PCR. Total RNAs were isolated using Trizol reagent (Laboratoires Eurobio, France) according to the manufacturer's instructions. Three μg of total RNA from each sample were reverse transcribed using MMLV reverse transcriptase and oligodT primers, at 37° C. for 90 min. The relative mRNA levels were evaluated by quantitative PCR using LightCycler Instrument (Roche Applied Science, Indianapolis Ind., USA) and SYBR Green PCR kit (ABGen, Courtabceuf, France). Triplicate reactions were carried out for each sample. Signal was normalized to 18S as internal control.

[5] = tested on: clonal F/STRO1+A cells; assay: ALP activity by staining in clonal cells; type: cell-based, human; settings: coating with 100 μg/ml CRRETAWAC
From the text: F/STRO1^+A cells were derived from human fetal bone marrow stroma, selected for Stro1 antigen expression, immortalized using the large T SV40 and subsequently subcloned (OYAJOBI et al., J Bone Miner Res, 14, 351-61, 1999). This clonal human bone marrow stromal cell line express mRNA markers or protein of the osteoblast lineage (Runx2, OC, ALP, type 1 collagen), of the chondrocyte lineage (aggrecan, types 2, 9 and 10 collagen), and of the adipocyte lineage (PPARgamma2, C/EBPalpha, aP2, G3PDH, LPL, leptin) under basal conditions (AHDJOUDJ et al., J Cell Biochem, 81, 23-38, 2001).
The activity of alkaline phosphatase, an early marker of osteoblast differentiation, was determined by a colorimetric assay as previously described (FROMIGUE et al., J Cell Biochem, 104, 620-8, 2008). ALP staining was performed using Sigma FAST kit according to the manufacturer's recommendations (Sigma). Cells were fixed in 75% ethanol, rinsed in PBS and incubated with the substrate buffer at 37° C.
Legend: The synthetic cyclic peptide CRRETAWAC promotes osteoblast marker genes expression in hMSCs. A) Human MSCs were treated with CRRETAWAC at the dose of 100 μg/ml for 24 h, RNAs were collected and osteoblast markers were determined by qRT-PCR analysis. Results, after correction to 18S content, are expressed as mean±SD of treated over control ratio. […] Infection with LV-ITGA5 is shown for comparison.

N#CC(=C(/N)Sc1ccccc1N)/C(C#N)=C(\N)Sc1ccccc1N [U0126]
increased expression of ALP induced by ITGA5 overexpression [1]: blunted | increased expression of Col1A1 induced by ITGA5 overexpression [1]: blunted | increased expression of Runx2 induced by ITGA5 overexpression [1]: blunted

C[C@@H]1C[C@H]2[C@@H]3CCC4=CC(=O)C=C[C@]4(C)[C@@]3(F)[C@@H](O)C[C@]2(C)[C@@]1(O)C(=O)CO [dexamethasone]
increase of ITGA5 expression (mRNA), treated over control [2]: 2-3 fold | increase of ITGA5 protein levels, treated over control [3]: about 1.5 fold

CRRETAWAC (also: cyclic)
expression of osteoblast markers (mRNA) [4]: greatly increased | ALP activity (staining) [5]: increased
